Results from PubChem BioAssay (NCI).
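1) Cells in 96-well plates. 2) Compound, 48 h, 5 concentrations. 3) Linear interpolation between surrounding doses. 4) Unreached endpoint = highest concentration. TGI marks complete inhibition of growth.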

Columns and labels:
Test in all cases: NCI tumour cell line growth inhibition, 48 h
HCC-2998 colon = test system: HCC-2998 colon
OVCAR-4 ovarian = test system: OVCAR-4 ovarian
OVCAR-5 ovarian = test system: OVCAR-5 ovarian
COLO 205 colon = test system: COLO 205 colon
SK-MEL-5 melanoma = test system: SK-MEL-5 melanoma
CCRF-CEM leukemia = test system: CCRF-CEM leukemia
NCI/ADR-RES ovarian = test system: NCI/ADR-RES ovarian
RPMI-8226 leukemia = test system: RPMI-8226 leukemia
OVCAR-3 ovarian = test system: OVCAR-3 ovarian
MDA-MB-435 = test system: MDA-MB-435
MDA-N = test system: MDA-N
SR leukemia = test system: SR leukemia
UACC-62 melanoma = test system: UACC-62 melanoma
HOP-92 NSCLC = test system: HOP-92 NSCLC
SN12C renal = test system: SN12C renal
SK-MEL-2 melanoma = test system: SK-MEL-2 melanoma
CAKI-1 renal = test system: CAKI-1 renal
DU-145 prostate = test system: DU-145 prostate
ACHN renal = test system: ACHN renal
TK-10 renal = test system: TK-10 renal
PC-3 prostate = test system: PC-3 prostate
A498 renal = test system: A498 renal
786-0 renal = test system: 786-0 renal
SK-OV-3 ovarian = test system: SK-OV-3 ovarian
K-562 leukemia = test system: K-562 leukemia
RXF 393 renal = test system: RXF 393 renal
MDA-MB-231 breast = test system: MDA-MB-231 breast
NCI-H226 lung = test system: NCI-H226 lung
MCF7 breast = test system: MCF7 breast
NCI-H522 lung = test system: NCI-H522 lung
U251 CNS = test system: U251 CNS
LOX IMVI melanoma = test system: LOX IMVI melanoma
NCI-H460 lung = test system: NCI-H460 lung
SW-620 colon = test system: SW-620 colon
SNB-75 CNS = test system: SNB-75 CNS
HCT-116 colon = test system: HCT-116 colon
NCI-H23 lung = test system: NCI-H23 lung
KM12 colon = test system: KM12 colon
BT-549 breast = test system: BT-549 breast
MOLT-4 leukemia = test system: MOLT-4 leukemia
EKVX NSCLC = test system: EKVX NSCLC
OVCAR-8 ovarian = test system: OVCAR-8 ovarian
SF-539 CNS = test system: SF-539 CNS
HCT-15 colon = test system: HCT-15 colon
M14 melanoma = test system: M14 melanoma
UACC-257 melanoma = test system: UACC-257 melanoma
IGROV1 ovarian = test system: IGROV1 ovarian
MALME-3M melanoma = test system: MALME-3M melanoma
A549 NSCLC = test system: A549 NSCLC
UO-31 renal = test system: UO-31 renal
SF-295 CNS = test system: SF-295 CNS
HL-60(TB) leukemia = test system: HL-60(TB) leukemia
SF-268 CNS = test system: SF-268 CNS
HS 578T breast = test system: HS 578T breast
SK-MEL-28 melanoma = test system: SK-MEL-28 melanoma
SNB-19 CNS = test system: SNB-19 CNS
T-47D breast = test system: T-47D breast
HT29 colon = test system: HT29 colon
HOP-62 NSCLC = test system: HOP-62 NSCLC

Measured: TGI

Cc1ccc(C(=O)C2=CN=C3C(=O)N(c4ccccc4)N(C)C3(C)C2=N)cc1 (stereo not given)
not listed: SF-268 CNS | HS 578T breast | SK-MEL-28 melanoma | SNB-19 CNS | T-47D breast | HT29 colon | HOP-62 NSCLC
> 100 µM: all other assays above

CC(=O)NC(C)c1ccc(N=NN2CCCC2)cc1 (stereo not given)
not listed: RPMI-8226 leukemia | SR leukemia | UACC-62 melanoma | K-562 leukemia | NCI-H460 lung | BT-549 breast | MOLT-4 leukemia
> 100 µM: all other assays above

CO[C@H]1C[C@H](n2cc(C)c(=O)[nH]c2=O)O[C@@H]1CO
not listed: HOP-92 NSCLC | SK-MEL-2 melanoma | NCI-H522 lung | T-47D breast
> 100 µM: all other assays above

CC1=Nc2c(C#N)ncn2N=C(C)C1
not listed: HCC-2998 colon | NCI-H522 lung | EKVX NSCLC | OVCAR-8 ovarian | HCT-15 colon | MALME-3M melanoma | SNB-19 CNS | T-47D breast
> 100 µM: all other assays above
